# Test results published in patent US20090137612A1, “Treatment with combined use of oxypurines and ascorbate to prevent and mitigate iron-catalized oxidative damage in Alzheimer's disease and other neurodegenerative disorders” (priority 2007, published 2009).
# Columns and labels:
# [1] = known in the art, in words; cited from earlier work
# [2] = cited from earlier work; for elevating human serum uric acid levels when given orally: humans (normal adults and gouty individuals), literature
# human hemoglobin = human hemoglobin (Homo sapiens, UniProt P68871+P69905); experiment: Inhibition of o-dianisidine oxidation by human hemoglobin in reaction with hydrogen peroxide (colorimetric, 460 nm); format: biochemical; settings: hemoglobin 12 mg/dl, 20 micromolar H2O2
# Chain of human hemoglobin (P69905 2-142 limits assumed): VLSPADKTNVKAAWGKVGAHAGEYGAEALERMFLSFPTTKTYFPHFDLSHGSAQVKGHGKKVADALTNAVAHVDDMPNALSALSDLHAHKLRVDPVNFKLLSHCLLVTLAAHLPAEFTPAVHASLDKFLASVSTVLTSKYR
# Chain of human hemoglobin (P68871 2-147 limits assumed): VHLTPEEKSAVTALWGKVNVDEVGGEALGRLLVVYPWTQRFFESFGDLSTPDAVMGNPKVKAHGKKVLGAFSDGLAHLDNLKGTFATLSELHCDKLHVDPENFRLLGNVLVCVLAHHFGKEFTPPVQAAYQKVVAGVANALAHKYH
# Method: (§1) All chemicals used in the following first 4 EXAMPLES for this invention were of analytical quality. A colorimeter was used to detect peroxidations of o-dianisidine, 9 mg/dL, as chromogenic hydrogen donor when oxidized, with its absorbance measured at 460 nm in saline solutions (140 mM NaCl, buffered by 3 mM phosphate salts at pH 7.4). Ferrous sulfate or human hemoglobin was added to control and to test solutions containing uric acid or ascorbic acid shortly before the addition of hydrogen peroxide, with oxidized molecules of dianisidine measured promptly. The saline solutions were mimetic of cerebrospinal fluid except devoid of possible confounding other molecules.
# Uric Acid Inhibition of Substrate Oxidation by Human Hemoglobin Level of 12 mg/dl in Reaction with 20 Micromolar Hydrogen Peroxide
# Ascorbic Acid Inhibition at 1.6 mg/dl of Substrate Oxidation Induced by Human Hemoglobin Level of 12 mg//dl in Reaction with 20 Micromolar Hydrogen Peroxide
# Comments: The inhibition remained virtually complete in EXAMPLE 4 at 10 minutes of continued exposure to the hydrogen peroxide, in spite of greater absorbance increase or oxidation in the control solutions from continuing reaction of the peroxide with the iron that resided in the hemoglobin. […] He used higher concentrations of hemoglobin and hydrogen peroxide (e.g. 0.67 or 0.8 mM of hydrogen peroxide) in phosphate-saline buffer with 2 hour incubations at 37° C.
# [3] = Inhibition of o-dianisidine oxidation induced by reaction of ferrous sulfate with hydrogen peroxide (colorimetric, 460 nm); format: biochemical
# Method: as §1
# Uric Acid Inhibition of Substrate Oxidations Induced by Reaction of Ferrous Sulfate (9.8 Micromolar) with 20 Micromolar Hydrogen Peroxide
# Comment: All incubations were done at 25-28° Celsius.
# Ascorbic Acid Inhibition at 1.6 mg/dl of Substrate Oxidation Induced by Reaction of Ferrous Sulfate (9.8 Micromolar) with 20 Micromolar Hydrogen Peroxide
# [4] = intravenously, healthy humans; Chamorro A et al., 2004; cited from earlier work
# [5] = Ascorbate 1.6 mg/dL, 5 min. after H2O2, n = 4
# [6] = Ascorbate 1.6 mg/dL, 10 min. after H2O2, n = 4
# [7] = Urate 0.5 mg/dL, 5 min. after H2O2, n 4
# [8] = Urate 0.5 mg/dL, 10 min. after H2O2, n 4
# [9] = Urate 6.0 mg/dL, 10 min. after H2O2, n 4
structure (smiles),measurement,setting,value
O=c1[nH]cnc2nc[nH]c12 [hypoxanthine],solubility in water,[1],more soluble in water
same,raise of serum or plasma uric acid level,"[2]; about 0.9 gram given orally (0.1 mmole/kg), persons of near 70 kg, Clifford A J et al., 1976",about 2.4 mg/dL
same,elevating human serum uric acid levels when given orally,[2],effectively raise serum uric acid levels
"O=C1O[C@H]([C@@H](O)CO)C(O)=C1O [Ascorbate, L-ascorbic acid]",% Inhibition,human hemoglobin; [5],100.0 ± 0.0 %
same,Absorbance Increase,human hemoglobin; [5],0.000 ± 0.000
same,% Inhibition,human hemoglobin; [6],99.8 ± 1.2 %
same,Absorbance Increase,human hemoglobin; [6],0.001 ± 0.008
same,Absorbance Increase,"[3]; Ascorbate 1.6 mg/dL, 5 min. after H2O2, mean ± s.e.m., n = 4",0.000 ± 0.000
same,% Inhibition,[3]; [5],100.0 ± 0.0 %
same,% Inhibition,[3]; [6],100.0 ± 0.0 %
same,Absorbance Increase,[3]; [6],0.000 ± 0.000
"O=c1[nH]c(=O)c2[nH]c(=O)[nH]c2[nH]1 [Urate, 2,6,8-oxypurine]",tolerability of intravenous administration,[4],without untoward effects
same,solubility in water,[1],difficulty soluble in water
same,elevating human serum uric acid levels when given orally,[2],ineffective
same,% Inhibition,human hemoglobin; [7],50.7 ± 7.56 %
same,Absorbance Increase,human hemoglobin; [7],0.028 ± 0.004
same,% Inhibition,human hemoglobin; [8],38.8 ± 3.25 %
same,Absorbance Increase,human hemoglobin; [8],0.052 ± 0.009
same,Absorbance Increase,"human hemoglobin; Urate 6.0 mg/dL, 5 min. after H2O2, mean ± s.e.m., n 4",0.006 ± 0.002
same,% Inhibition,"human hemoglobin; Urate 6.0 mg/dL, 5 min. after H2O2, n 4",90.6 ± 0.90 %
same,% Inhibition,human hemoglobin; [9],80.3 ± 3.54 %
same,Absorbance Increase,human hemoglobin; [9],0.016 ± 0.005
same,Absorbance Increase,"[3]; Urate 0.5 mg/dL, 5 min. after H2O2, 460 nm, mean ± s.e.m., n 5",0.030 ± 0.003
same,% Inhibition,"[3]; Urate 0.5 mg/dL, 5 min. after H2O2, mean ± s.e.m., n 5",36.8 ± 5.3 %
same,Absorbance Increase,"[3]; Urate 0.5 mg/dL, 10 min. after H2O2, 460 nm, mean ± s.e.m., n 5",0.034 ± 0.017
same,% Inhibition,"[3]; Urate 0.5 mg/dL, 10 min. after H2O2, mean ± s.e.m., n 5",26.5 ± 5.5 %
same,Absorbance Increase,"[3]; Urate 6.0 mg/dL, 5 min. after H2O2, 460 nm, pH 7.4 saline, 25-28° Celsius, mean ± s.e.m., n 5",0.012 ± 0.003
same,% Inhibition,"[3]; Urate 6.0 mg/dL, 5 min. after H2O2, mean ± s.e.m., n 5",75.3 ± 4.8 %
same,Absorbance Increase,"[3]; Urate 6.0 mg/dL, 10 min. after H2O2, 460 nm, mean ± s.e.m., n 5",0.014 ± 0.003
same,% Inhibition,"[3]; Urate 6.0 mg/dL, 10 min. after H2O2, mean ± s.e.m., n 5",70.9 ± 4.5 %
O=c1[nH]c(=O)c2[nH]cnc2[nH]1 [xanthine],solubility in water,[1],difficulty soluble in water
same,elevating human serum uric acid levels when given orally,[2],not
